Measured values as given in ChEMBL document CHEMBL3875177, “Design, synthesis and biological evaluation of [1,2,3]triazolo[4,5-d]pyrimidine derivatives possessing a hydrazone moiety as antiproliferative agents” (Eur J Med Chem, 2016).
Active and inactive are the calls of the source. The rule behind the calls is not given here.

Experiments:
[1] = (§1) Antiproliferative activity against human MGC803 cells after 72 hrs by MTT assay; type: functional, cell-based; conditions: MGC-803, 72 h
[2] = Antiproliferative activity against human MCF7 cells after 72 hrs by MTT assay; type: functional, cell-based; conditions: MCF7, 72 h
[3] = Antiproliferative activity against human EC109 cells after 72 hrs by MTT assay; type: functional, cell-based; conditions: ECa-109, 72 h
[4] = Antiproliferative activity against human GES-1 cells after 72 hrs by MTT assay; type: cell-based; conditions: GES1, 72 h
MGC-803 [5] = experiment: as §1; type: functional, cell-based
[6] = Inhibition of colony formation in human MGC803 cells assessed as reduction in foci formation at 0.8 uM after 10 days by crystal violet staining based assay relative to control; type: functional; conditions: MGC-803, 240 h
MGC-803 [7] = experiment: Induction of apoptosis in human MGC803 cells assessed as cell rounding at 1 to 4 uM after 24 hrs by Hoechst 33258 staining based fluorescence microscopic method; type: functional
MGC-803 [8] = experiment: Induction of apoptosis in human MGC803 cells assessed as chromatin shrinkage at 1 to 4 uM after 24 hrs by Hoechst 33258 staining based fluorescence microscopic method; type: functional, cell-based
MGC-803 [9] = experiment: Induction of apoptosis in human MGC803 cells assessed as formation of apoptotic bodies at 1 to 4 uM after 24 hrs by Hoechst 33258 staining based fluorescence microscopic method; type: functional, cell-based
MGC-803 [10] = experiment: Induction of apoptosis in human MGC803 cells after 24 hrs by Annexin-V FITC/propidium iodide staining based flow cytometry; type: functional, cell-based
MGC-803 [11] = experiment: Induction of apoptosis in human MGC803 cells at 1 uM after 24 hrs by Annexin-V FITC/propidium iodide staining based flow cytometry (reference value: 1.8%); type: functional
MGC-803 [12] = experiment: Induction of apoptosis in human MGC803 cells at 2 uM after 24 hrs by Annexin-V FITC/propidium iodide staining based flow cytometry (reference value: 1.8%); type: functional
MGC-803 [13] = experiment: Induction of apoptosis in human MGC803 cells at 4 uM after 24 hrs by Annexin-V FITC/propidium iodide staining based flow cytometry (reference value: 1.8%); type: functional
MGC-803 [14] = experiment: Induction of mitochondrial membrane potential loss in human MGC803 cells at 4 uM after 24 hrs by JC-1 staining based flow cytometry (reference value: 49.8%); type: functional
MGC-803 [15] = experiment: Induction of mitochondrial membrane potential loss in human MGC803 cells after 24 hrs by JC-1 staining based flow cytometry; type: functional, cell-based
MGC-803 [16] = experiment: Induction of apoptosis in human MGC803 cells assessed as increase in Bax protein expression after 24 hrs by Western blot method; type: functional, cell-based
MGC-803 [17] = experiment: Induction of apoptosis in human MGC803 cells assessed as increase in Bak protein expression after 24 hrs by Western blot method; type: functional, cell-based
MGC-803 [18] = experiment: Induction of apoptosis in human MGC803 cells assessed as increase in PUMA protein expression after 24 hrs by Western blot method; type: functional, cell-based
MGC-803 [19] = experiment: Induction of apoptosis in human MGC803 cells assessed as decrease in Bcl2 protein expression at 1 to 4 uM after 24 hrs by Western blot method; type: functional, cell-based
MGC-803 [20] = experiment: Induction of apoptosis in human MGC803 cells assessed as decrease in Mcl1 protein expression at 1 to 4 uM after 24 hrs by Western blot method; type: functional, cell-based
MGC-803 [21] = experiment: Induction of apoptosis in human MGC803 cells assessed as increase in caspase-3 protein expression at 1 to 4 uM after 24 hrs by Western blot method; type: functional, cell-based
MGC-803 [22] = experiment: Induction of apoptosis in human MGC803 cells assessed as increase in caspase-9 protein expression at 1 to 4 uM after 24 hrs by Western blot method; type: functional, cell-based
[23] = target: Lysine-specific histone demethylase 1A (Homo sapiens) (UniProt O60341); experiment: Inhibition of LSD1 (unknown origin) at 10 uM relative to control

SMILES | IC50 [1] | IC50 [2] | IC50 [3] | other results
CCCSc1nc(N/N=C/c2c(O)ccc3ccccc23)c2nnn(Cc3ccccc3)c2n1 | 3.71 µM | 6.4 µM | 9.29 µM | IC50 [4]: 13.1 µM
CCCSc1nc(N/N=C(\C)c2ccccc2O)c2nnn(Cc3ccc(Cl)cc3)c2n1 | 7.1 µM | 42.6 µM | 11.2 µM | 
CCCSc1nc(N/N=C(\C)c2ccccc2O)c2nnn(Cc3ccc(Br)cc3)c2n1 | 11.3 µM | 15.6 µM | 36.1 µM | 
CCCSc1nc(N/N=C/c2c[nH]c3ccccc23)c2nnn(Cc3ccccc3)c2n1 | 7.41 µM | 9.01 µM | 8.69 µM | 
C#CCSc1nc(N/N=C/c2c(O)ccc3ccccc23)c2nnn(Cc3ccccc3)c2n1 | 10.5 µM | 8.97 µM | 6.52 µM | 
CCCSc1nc(N/N=C/c2cccc(Cl)c2)c2nnn(Cc3ccccc3)c2n1 | > 64 µM | > 64 µM | > 64 µM | 
CCCSc1nc(N/N=C(\C)c2ccccc2O)c2nnn(Cc3ccc(O)cc3)c2n1 | 7.68 µM | 9.52 µM | 15.9 µM | 
CCCSc1nc(N/N=C/c2ccc3ccccc3c2)c2nnn(Cc3ccccc3)c2n1 | > 64 µM | > 64 µM | > 64 µM | 
CCCSc1nc(N/N=C(\C)c2ccccc2)c2nnn(Cc3ccccc3)c2n1 | 25.4 µM | 32.1 µM | 32.2 µM | 
CCCSc1nc(N/N=C(\C)c2ccccc2O)c2nnn(Cc3ccccc3Cl)c2n1 | 35 µM | > 64 µM | > 64 µM | 
C#CCSc1nc(N/N=C(\C)c2ccccc2O)c2nnn(Cc3ccccc3)c2n1 | 3.82 µM | 11.2 µM | 5.25 µM | 
C/C(=N\Nc1nc(SCc2ccccc2)nc2c1nnn2Cc1ccccc1)c1ccccc1O | 0.85 µM | 0.95 µM | 1.77 µM | Activity (MGC-803 [5]): Dose-dependent effect; IC50 [4]: 56.2 µM; inhibition at 0.8 µM [6]: 83%; Activity (MGC-803 [7]): Active; Activity (MGC-803 [8]): Active; Activity (MGC-803 [9]): Active; Activity (MGC-803 [10]): Dose-dependent effect; Activity (MGC-803 [11]): <=8.7%; Activity (MGC-803 [12]): <=24.8%; Activity (MGC-803 [13]): <=53.9%; Activity (MGC-803 [14]): <=90.4%; Activity (MGC-803 [15]): Dose-dependent effect; Activity (MGC-803 [16]): Dose-dependent effect; Activity (MGC-803 [17]): Dose-dependent effect; Activity (MGC-803 [18]): Dose-dependent effect; Activity (MGC-803 [19]): Active; Activity (MGC-803 [20]): Active; Activity (MGC-803 [21]): Active; Activity (MGC-803 [22]): Active; inhibition [23]: 26.8%
CCCSc1nc(N/N=C/c2ccccc2F)c2nnn(Cc3ccccc3)c2n1 | > 64 µM | > 64 µM | > 64 µM | 
CCCSc1nc(N/N=C/c2ccc([N+](=O)[O-])cc2)c2nnn(Cc3ccccc3)c2n1 | 10.1 µM | 11 µM | 6.64 µM | 
CCCSc1nc(N/N=C(\C)c2ccccc2O)c2nnn(CCc3cccs3)c2n1 | 16.4 µM | > 64 µM | 30.9 µM | 
COc1cc(/C=N/Nc2nc(SCc3ccccc3)nc3c2nnn3Cc2ccccc2)cc(OC)c1OC | 1.32 µM | 13.5 µM | 4.4 µM | IC50 [4]: 48.3 µM
CCCSc1nc(N/N=C(\C)c2ccccc2O)c2nnn(Cc3ccco3)c2n1 | 4.76 µM | 29 µM | 5.76 µM | IC50 [4]: 33.3 µM
CCCSc1nc(N/N=C/c2ccc(C)cc2)c2nnn(Cc3ccccc3)c2n1 | > 64 µM | > 64 µM | > 64 µM | 

SMILES | IC50 [1] | IC50 [2] | IC50 [3] | other results
CCCSc1nc(N/N=C(\C)c2ccc(Br)cc2)c2nnn(Cc3ccccc3)c2n1 | 6.02 µM | 13 µM | 4.67 µM | 
CCCSc1nc(N/N=C/c2ccccc2)c2nnn(Cc3ccccc3)c2n1 | > 64 µM | > 64 µM | > 64 µM | 
CCCSc1nc(N/N=C(\C)c2ccccc2O)c2nnn(CCO)c2n1 | 47.1 µM | > 64 µM | 60.3 µM | 
CCCSc1nc(N/N=C(\C)c2ccccc2O)c2nnn(Cc3ccccc3)c2n1 | 2.31 µM | 11 µM | 11.1 µM | IC50 [4]: 32.3 µM
O=c1[nH]cc(F)c(=O)[nH]1 [FLUOROURACIL] | 7.35 µM | 9.25 µM | 10.6 µM | 
C#CCSc1nc(N/N=C/c2cc(OC)c(OC)c(OC)c2)c2nnn(Cc3ccccc3)c2n1 | 4.67 µM | 17 µM | 6.54 µM | IC50 [4]: 25.6 µM
CCCSc1nc(N/N=C/c2cc(OC)c(OC)c(OC)c2)c2nnn(Cc3ccccc3)c2n1 | 9.41 µM | > 64 µM | 4.06 µM | IC50 [4]: > 64 µM
CCCSc1nc(N/N=C(\C)c2ccccc2O)c2nnn(Cc3ccc(F)cc3)c2n1 | 11 µM | > 64 µM | 21.9 µM | 
CCCSc1nc(N/N=C(\C)c2ccccc2O)c2nnn(Cc3cccc(Cl)c3)c2n1 | 6.5 µM | 39.9 µM | 13 µM | 
CCCSc1nc(N/N=C/c2cccs2)c2nnn(Cc3ccccc3)c2n1 | > 64 µM | > 64 µM | > 64 µM | 
CCCSc1nc(N/N=C/c2cccnc2)c2nnn(Cc3ccccc3)c2n1 | 38.1 µM | 58.7 µM | > 64 µM | 
CCCSc1nc(N/N=C/c2ccc(Br)cc2)c2nnn(Cc3ccccc3)c2n1 | 34.9 µM | > 64 µM | > 64 µM | 
CCCSc1nc(N/N=C/c2ccc(N(C)C)cc2)c2nnn(Cc3ccccc3)c2n1 | 13.1 µM | 12.2 µM | 20 µM | 
CCCSc1nc(N/N=C/c2ccccc2Cl)c2nnn(Cc3ccccc3)c2n1 | 10.9 µM | 13.8 µM | 6.18 µM | 
CCCSc1nc(N/N=C/c2ccc(Cl)cc2)c2nnn(Cc3ccccc3)c2n1 | > 64 µM | > 64 µM | > 64 µM | 
CCCSc1nc(N/N=C(\C)c2ccc(OC)cc2)c2nnn(Cc3ccccc3)c2n1 | 44.3 µM | > 64 µM | > 64 µM | 
C#CCSc1nc(N/N=C/c2ccc(N(C)C)cc2)c2nnn(Cc3ccccc3)c2n1 | 7.62 µM | > 64 µM | 31.2 µM | 
CCCSc1nc(N/N=C(\C)c2ccc(O)cc2)c2nnn(Cc3ccccc3)c2n1 | 16.7 µM | 21.6 µM | 32.5 µM | 
